# In patent US20260273028A1, “PEROXIDASE COMPOSITIONS CONTAINING IMPROVED ENHANCING AGENTS” (FLEN HEALTH PHARMA NV, priority 2022, published 2026):
# How the values were obtained:
# S. aureus (ATCC®6538™) = experiment: Microbial challenge testing in alginogel with GOX+LPO; format: cell-based; settings: for antimicrobial efficacy against S. aureus of halide alone, 0 vs 80 minute timepoint: alginogel, halide alone (without enzymes) 0.03% (v/v)
# Description: To determine the ability of an antimicrobial agent to elicit an antimicrobial preserving efficacy in a gel environment, a microbiological challenge test can be performed. Here, the antimicrobial agent is a combination of the natural enzymes GOX+LPO. […] Microbial challenge testing was performed according to the method described in the European Pharmacopoeia current version chapter 5.1.3 ‘Efficacy of antimicrobial preservation’, but with adapted time points (0, 10, 20, 30, 40, 50, 60, 70 and 80 min instead of 0, 2, 7, 14 and 28 days). In brief, for every enhancing agent to be evaluated, a lab-scale alginogel (based on the Flaminal® formulation, but without the original enhancer guaiacol) including 0.0075% GOX+LPO (1:1) was prepared according to standard practices. Enhancing agents were added to the alginogel in a final concentration ranging from 0.01 to 0,00025% (v/w). As a reference, an alginogel including 0.0075% GOX+LPO (1:1) without the addition of any enhancing agent was included (designated as: enzymes only). As a control, an alginogel without both GOX+LPO (1:1) enzyme solution and enhancing agent (designated as: empty gel) as well as an alginogel only containing the enhancing agent only (designated as: enhancing candidate only) were included. After preparation, a homogenous sample of 10 g was transferred into a 50 ml conical tube for each alginogel to be evaluated and microorganism to be tested. For each test microorganism, including S. aureus (ATCC®6538™), P. aeruginosa (ATCC®9027™), C. albicans (ATCC®10231™) and A. niger (ATCC®16404 ™), a microbial suspension of about 10^8 CFU/ml was prepared in sterile diluent (buffered sodium chloride-peptone solution). Then, the 50 ml conical tubes containing the alginogel samples to be evaluated were inoculated with 100 μl of the designated inoculum. At the start (time point 0) and after 0, 10, 20, 30, 40, 50, 60, 70 and 80 min, the number of viable microorganisms per gram product (expressed as CFU/g) was determined by transferring a sample of 0.5 g of the product into a 15 ml conical tube containing 4.5 ml of sterile diluent and applying general dilution and plate count techniques. For each combination evaluated, this test was repeated at least 1-3 times. The collected data were further analyzed in MS Excel. Mean absolute counts (expressed as log CFU/g) were visualized in a graph.
# The purpose of the hereby described experiment was to compare the efficacy of antimicrobial activity enhancement of the GOX+LPO (1:1) enzyme combination by ethanolamine and proline in a microbial challenge test using S. aureus. The test was set up as described in the section on ‘challenge testing’ in Example 2.4. The test was repeated at least 3 times.
# The purpose of the hereby described experiment was to compare the efficacy of antimicrobial activity of the GOX+LPO (1:1) enzyme combination in the presence of potassium chloride/potassium bromide and potassium iodide. A microbial challenge test using S. aureus was performed. The test was set up as described in the section on ‘challenge testing’ in Example 2.4.
# GOX = GOX (Aspergillus niger, UniProt P13006); experiment: Glucose oxidase (GOX) activity, spectrophotometric assay; format: biochemical; settings: cysteine 1-0.1 mg/ml (FIG. 1)
# Description: The natural enzyme GOX is an oxidoreductase that catalyses the oxidation of glucose to gluconic acid and hydrogen peroxide (H2O2) in the presence of water and air. To measure the enzymatic activity of GOX, a standard spectrophotometric assay is performed. In brief, a second oxidoreductase enzyme, peroxidase, and a chromogenic oxygen acceptor, o-dianisidine, are added to the former reaction mix (GOX+glucose+water+air) so that the formation of a coloured compound is achieved that can in turn be measured by spectrophotometry. GOX was tested in 4 different concentrations, i.e., 100, 50, 10 and 1 mg/ml. Each reaction mixture was tested in duplo. In the event GOX activity was evaluated in the presence of a potentiator candidate (=a molecule that might be able to augment the enzymatic activity of GOX), the latter was added in a low and high concentration ranging from 100 to 0.1 mg/ml. The blank consisted of the reaction mix in which the enzymes were absent. After mixing all reaction elements, absorbance was immediately measured with a plate reader (Spectramax ID3, Molecular Devices) every minute for 5 minutes at 35° C. For each combination evaluated, this test was repeated at least 2 times. Results were further analysed in MS Excel and expressed as U/g. Mean blank-corrected data±SD were plotted. Statistical significance compared to the combination without potentiator candidate (reference) was calculated using students' t-tests. Significance is achieved when the obtained p-value is lower than 0,05. Significance levels were defined as p<0.05=*; p<0.01=** and p<0.001=***.
# [1] = system: Pseudomonas aeruginosa ATCC®9027™; experiment: MBC determination, broth microdilution with CFU enumeration; format: cell-based; settings: P. aeruginosa; guaiacol added as enhancing agent
# Description: The minimal bactericidal concentration (MBC) is defined as the lowest concentration of an antimicrobial agent that results in a complete killing of the microbial population (determined via standard CFU enumeration techniques) after overnight incubation. This endpoint measurement is used, together with the MIC (see above), to define the microbial susceptibility towards an antimicrobial agent. Here, the antimicrobial agent is a combination of the natural enzymes GOX+LPO.
# To determine the MBC of the described combinations, a classical broth microdilution assay combined with standard CFU enumeration techniques was used to determine the susceptibility of a series of microbes commonly detected in infected wounds, including (a) the Gram-positive bacterium Staphylococcus aureus ATCC® 6538™ (results shown below), (b) the Gram-negative bacterium Pseudomonas aeruginosa ATCC®9027™ (results shown below), (c) the yeast Candida albicans ATCC®10231™ (results shown below), and (d) the fungus Aspergillus niger ATCC®16404™ (results shown below). In brief, the broth microdilution assay was set up as previously described (see 2.1). After incubation, the MBC was determined by investigating the presence of viable microorganisms at the MIC and following higher concentrations (MICx2, MICx4, and so on) using standard CFU enumeration techniques. For each combination evaluated, this test was repeated at least 5 times. The collected data were further analyzed in MS Excel. Mean concentration data (expressed as log CFU/ml) were visualized in a table format in which the MBC was highlighted.
# [2] = system: Pseudomonas aeruginosa ATCC®9027™; experiment: MIC determination, broth microdilution, GOX+LPO with potentiator candidate; format: cell-based; settings: P. aeruginosa; guaiacol added as enhancing agent
# Description: (§1) The minimum inhibitory concentration (MIC) is defined as the lowest concentration of an antimicrobial agent that results in a complete inhibition of microbial growth (determined via visual evaluation or absorbance measurements) after overnight incubation. This endpoint measurement is used to define the microbial susceptibility towards an antimicrobial agent. Here, the antimicrobial agent is a combination of the natural enzymes GOX+LPO.
# (§2) To determine the MIC of the described combinations, a classical broth microdilution assay was used to determine the susceptibility of a series of microbes commonly detected in infected wounds, including (a) the Gram-positive bacterium Staphylococcus aureus ATCC® 6538™ (results shown below), (b) the Gram-negative bacterium Pseudomonas aeruginosa ATCC®9027™ (results shown below), (c) the yeast Candida albicans ATCC®10231™ (results shown below), and (d) the fungus Aspergillus niger ATCC®16404™ (results shown below). In brief, a […] serial dilution of the enzymatic GOX+LPO solution was prepared in a transparent, flat-bottomed 96-well test plate with final concentrations ranging from 0.005 to 0.00000977% (v/v). To each well, a fixed volume of the enzymatic substrate containing 3,3% (w/v) glucose and 0,084% (w/v) potassium iodide, as well as the microbial inoculum with an OD600 of 0.1 was added. In the event the enzyme combination was evaluated in the presence of a potentiator candidate, the latter was added together with the enzymatic substrate in a final concentration ranging from 100 to 0,00125% (v/v). For each combination evaluated, a blank (no addition of microbial inoculum) was included. Positive (inoculum only) and negative (background solution only) were included to evaluate the performance of the test and to select the enzymatic GOX+LPO concentration at which no microbial growth is detected (i.e., absorbance equal to that of the background solution only). Then, the 96-well test plate was incubated for 24 hours at 37° C. (S. aureus, P. aeruginosa and C. albicans) or 25° C. (A. niger). After incubation, the absorbance of each well was measured using a plate spectrophotometer (Spectramax ID3, Molecular Devices). For each combination evaluated, this test was repeated at least 5 times. The collected data were further analyzed in MS Excel. Mean absorbance data were visualized in a table format in which the MIC was highlighted.
# [3] = system: Staphylococcus aureus ATCC® 6538™; experiment: as above; format: cell-based; settings: S. aureus; guaiacol added as enhancing agent
# Description: as §1, §2
# Lactoperoxidase = Lactoperoxidase (Bos taurus, UniProt P80025); experiment: Lactoperoxidase (LPO) activity, spectrophotometric assay (ABTS); format: biochemical; settings: concentration not given
# Description: Lactoperoxidase is a member of the heme peroxidase family of enzymes that, together with a catalytic anion (such as I^−, derived from KI, present in the substrate), will catalyse the oxidation of H2O2, leading to hypojodite (IO^−). This hypojodite is a reactive oxygen species (ROS). To measure the enzymatic activity of LPO, a standard spectrophotometric assay is performed. In brief, H2O2 combined with 2,2′-azino-bis (3-ethylbenzothiazoline-6-sulfonzuur (ABTS) is catalysed by LPO so that the formation of a coloured compound is achieved that can in turn be measured by spectrophotometry. LPO was tested in 3 different concentrations, i.e., 50, 10 and 1 mg/ml. Each reaction mixture was tested in duplo. In the event LPO activity was evaluated in the presence of a potentiator candidate (=a molecule that might be able to augment the enzymatic activity of LPO), the latter was added in a low and high concentration ranging from 100 to 0.1 mg/ml. The blank consisted of the reaction mix in which H2O2 was absent. The absorbance was immediately measured with a plate reader (Spectramax ID3, Molecular Devices) every 12 seconds for 5 minutes at 20° C. For each combination evaluated, this test was repeated at least 2 times. Results were further analysed in MS Excel and expressed as U/g. Mean blank-corrected data±SD were plotted. Statistical significance compared to the combination without potentiator candidate (reference) was calculated using students' t-tests. Significance is achieved when the obtained p-value is lower than 0,05. Significance levels were defined as p<0.05=*; p<0.01=** and p<0.001=***.
# GOX, sequence (P13006 17-605): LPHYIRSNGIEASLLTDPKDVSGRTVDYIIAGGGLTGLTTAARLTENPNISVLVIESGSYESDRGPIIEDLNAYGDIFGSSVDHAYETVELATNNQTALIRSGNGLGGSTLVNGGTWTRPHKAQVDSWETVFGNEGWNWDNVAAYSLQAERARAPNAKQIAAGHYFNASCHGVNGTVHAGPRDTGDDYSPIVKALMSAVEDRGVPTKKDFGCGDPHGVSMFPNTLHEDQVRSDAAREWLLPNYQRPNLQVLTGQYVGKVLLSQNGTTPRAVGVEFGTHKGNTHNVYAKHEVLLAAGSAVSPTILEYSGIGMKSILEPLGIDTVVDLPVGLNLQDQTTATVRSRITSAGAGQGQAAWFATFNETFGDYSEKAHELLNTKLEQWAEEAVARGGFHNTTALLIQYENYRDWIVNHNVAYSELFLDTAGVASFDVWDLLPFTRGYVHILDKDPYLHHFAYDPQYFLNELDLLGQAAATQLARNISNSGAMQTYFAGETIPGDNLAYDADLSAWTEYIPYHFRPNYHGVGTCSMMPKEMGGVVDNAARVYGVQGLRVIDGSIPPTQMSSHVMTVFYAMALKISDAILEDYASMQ
structure (smiles),measurement,setting,value
"[Br-].[K+] [KBr, potassium bromide, reference compound]","antimicrobial efficacy against S. aureus of halide alone, 0 vs 80 minute timepoint",S. aureus (ATCC®6538™),did not result in any difference in antimicrobial efficacy
"[Cl-].[K+] [KCl, potassium chloride, reference compound]","antimicrobial efficacy against S. aureus of halide alone, 0 vs 80 minute timepoint",S. aureus (ATCC®6538™),did not result in any difference in antimicrobial efficacy
"[I-].[K+] [KI, potassium iodide]",time to complete reduction of absolute S. aureus counts,"S. aureus (ATCC®6538™); alginogel with GOX+LPO (1:1), halide 0,03% (v/v)",70 min
same,time to complete reduction of absolute S. aureus counts,"S. aureus (ATCC®6538™); alginogel with GOX+LPO (1:1), halide 0,003% (v/v)",80 min
same,"antimicrobial efficacy against S. aureus of halide alone, 0 vs 80 minute timepoint",S. aureus (ATCC®6538™),did not result in any difference in antimicrobial efficacy
"N[C@@H](CS)C(=O)O [cysteine, reference compound]",GOX activity compared to reference,GOX,significant lower GOX activity
"NCCO [ethanolamine, reference compound]",exposure time to complete reduction of absolute S. aureus counts (average),"S. aureus (ATCC®6538™); alginogel with GOX+LPO (1:1), enhancer 0,0005% (v/v)",70 min
"COc1ccccc1O [guaiacol, reference compound]",MBC: GOX+LPO enzyme solution needed,[1],0.00125 % (v/v)
same,MIC: GOX+LPO enzyme solution needed to completely inhibit growth,[2],0.00125 % (v/v)
same,MIC: GOX+LPO enzyme solution needed to completely inhibit growth,[3],0.0000781 % (v/v)
"CC(C)C[C@H](N)C(=O)O [leucine, reference compound]",LPO activity compared to reference,Lactoperoxidase,did not result in a significant difference
